Data: patent publication US6683211B1, “Phenyl-propargylether derivatives” (priority 2000, dated 2004)

Experiments:
[1] = system: Plasmopara viticola; experiment: D-1a) residual-protective action against Plasmopara viticola on vines; format: in vivo; settings: Plasmopara viticola, 144 h; 200 ppm; test D-1a) residual-protective; vine seedlings; evaluated after 6 days; read-out: inhibit fungal infestations
Description: (§1) D-1: Action Against Plasmopara viticola on Vines
(§2) a) Residual-protective Action
Vine seedlings are sprayed at the 4- to 5-leaf stage with a spray mixture (0.02% active ingredient) prepared from a wettable powder formulation of the test compound. After 24 hours, the treated plants are infected with a sporangia suspension of the fungus. Fungus infestation is evaluated after incubation for 6 days at 95-100% relative humidity and +20° C.

[2] = system: Phytophthora; experiment: D-3a) residual-protective action against Phytophthora on potato plants; format: in vivo; settings: Phytophthora, 96 h; 200 ppm; test D-3a) residual-protective; potato plants (Bintje); evaluated after 4 days; read-out: inhibit fungal infestations
Description: (§3) D-3: Action Against Phytophthora on Potato Plants
as §2
2-3 week old potato plants (Bintje variety) are sprayed with a spray mixture (0.02% active ingredient) prepared from a wettable powder formulation of the test compound. After 48 hours, the treated plants are infected with a sporangia suspension of the fungus. Fungus infestation is evaluated after incubation of the infected plants for 4 days at 90-100% relative humidity and +20° C.

[3] = system: Phytophthora; experiment: D-2a) residual-protective action against Phytophthora on tomato plants; format: in vivo; settings: Phytophthora, 120 h; 200 ppm; test D-2a) residual-protective, evaluated after 5 days, read-out: inhibit fungal infestations
Description: (§4) D-2: Action Against Phytophthora on Tomato Plants
as §2
After a cultivation period of 3 weeks, tomato plants are sprayed with a spray mixture (0.02% active ingredient) prepared from a wettable powder formulation of the test compound. After 48 hours, the treated plants are infected with a sporangia suspension of the fungus. Fungus infestation is evaluated after incubation of the infected plants for 5 days at 90-100% relative humidity and +20° C.

[4] = system: Phytophthora; experiment: D-2b) systemic action against Phytophthora on tomato plants; format: in vivo; settings: Phytophthora, 96 h; 200 ppm; test D-2b) systemic (soil watering), evaluated after 4 days, read-out: inhibit fungal infestations
Description: as §4
After a cultivation period of 3 weeks, tomato plants are watered with a spray mixture (0.02% active ingredient based on the volume of the soil) prepared from a wettable powder formulation of the test compound. […] After 96 hours, the treated plants are infected with a sporangia suspension of the fungus. Fungus infestation is evaluated after incubation of the infected plants for 4 days at 90-100% relative humidity and +20° C. […] Compounds E1.003, E1.004, E1.009, E1.011, E1.012, E1.014, E1.018, E1.019, E1.020, E1.021, E1.022, E1.023, E1.025, E1.031, E1.032, E1.033, E1.038, E1.040, E1.044, E1.045, E1.049, E1.050, E1.053, E1.055, E1.057, E1.064, E1.085, E1.089, E1.090, E1.091, E1.102, E1.08, E1.110, E1.112, E1.121, E1.125, E1.129, E1.139 and E1.141 at 200 ppm inhibit fungal infestations in both tests D-2a) and D-2b) by 80-100%.

[5] = system: Plasmopara viticola; experiment: D-1b) residual-curative action against Plasmopara viticola on vines; format: in vivo; settings: Plasmopara viticola, 144 h; 200 ppm; test D-1b) residual-curative; vine seedlings; evaluated 6 days after infection; read-out: inhibit fungal infestations
Description: as §1
b) Residual-curative Action
Vine seedlings are infected at the 4- to 5-leaf stage with a sporangia suspension of the fungus. After incubation for 24 hours in a humidity chamber at 95-100% relative humidity and +20° C., the infected plants are dried and sprayed with a spray mixture (0.02% active ingredient) prepared from a wettable powder formulation of the test compound. After the spray coating has dried, the treated plants are placed in the humidity chamber again.
Fungus infestation is evaluated 6 days after infection.

[6] = system: Phytophthora; experiment: D-3b) systemic action against Phytophthora on potato plants; format: in vivo; settings: Phytophthora, 96 h; 200 ppm; test D-3b) systemic (soil watering); potato plants (Bintje); evaluated after 4 days; read-out: inhibit fungal infestations
Description: as §3
2-3 week old potato plants (Bintje variety) are watered with a spray mixture (0.02% active ingredient based on the volume of the soil) prepared from a wettable powder formulation of the test compound. […] After 48 hours, the treated plants are infected with a sporangia suspension of the fungus. Fungus infestation is evaluated after incubation of the infected plants for 4 days at 90-100% relative humidity and +20° C. Fungal infestation is effectively controlled with compounds of Tables 1 to 35. Compounds E1.003, E1.004, E1.009, E1.011, E1.012, E1.019, E1.020, E1.021, E1.022, E1.025, E1.031, E1.032, E1.033, E1.038, E1.045, E1.049, E1.050, E1.053, E1.085, E1.089, E1.090, E1.091, E1.102, E1.110, E1.112, E1.121, E1.125, E1.129 at 200 ppm inhibit fungal infestations in both tests D-3a) and D-3b) by 80-100%.

| Structure (SMILES) | inhibition at 200 ppm [1] [%] | inhibition at 200 ppm [2] [%] | inhibition at 200 ppm [3] [%] | inhibition at 200 ppm [4] [%] | inhibition at 200 ppm [5] [%] | inhibition at 200 ppm [6] [%] | melting point [°C] |
| --- | --- | --- | --- | --- | --- | --- | --- |
| C#CCOc1ccc(CCNC(=O)C(OCC#C)c2ccc(C)cc2)cc1OC (stereo not drawn) [Compound E1.045, 2-(4-tolyl)-N-[2-(3-methoxy-4-prop-2-ynyloxy-phenyl)-ethyl]-2-prop-2-ynyloxy-acetamide] | 80 to 100 | 80 to 100 | 80 to 100 | 80 to 100 | 80 to 100 | 80 to 100 | 81 to 82 |
| C#CCOc1ccc(CCNC(=O)C(OCC#C)c2ccc(Br)cc2)cc1OC (stereo not drawn) [Compound E1.022, 2-(4-bromo-phenyl)-N-[2-(3-methoxy-4-prop-2-ynyloxy-phenyl)-ethyl]-2-prop-2-ynyloxy-acetamide] | 80 to 100 | 80 to 100 | 80 to 100 | 80 to 100 | 80 to 100 | 80 to 100 | 92 to 94 |
| C#CCOc1ccc(CCNC(=O)C(OCC)c2ccc(Cl)cc2)cc1OC (stereo not drawn) [Compound E1.004, 2-(4-chloro-phenyl)-2-ethoxy-N-[2-(3-methoxy-4-prop-2-ynyloxy-phenyl)-ethyl]-acetamide] | 80 to 100 | 80 to 100 | 80 to 100 | 80 to 100 | 80 to 100 | 80 to 100 |  |
| C#CCOc1ccc(CCNC(=O)C(Cl)c2ccc(Br)cc2)cc1OC (stereo not drawn) |  |  |  |  |  |  | 100 to 102 |
| C#CCOc1ccc(CCNC(=O)C(OCC#C)c2ccc(Cl)cc2)cc1OC (stereo not drawn) [Compound E1.011, 2-(4-chloro-phenyl)-N-[2-(3-methoxy-4-prop-2-ynyloxy-phenyl)-ethyl]-2-prop-2-ynyloxy-acetamide] | 80 to 100 | 80 to 100 | 80 to 100 | 80 to 100 | 80 to 100 | 80 to 100 |  |
| C#CCOc1ccc(CCNC(=O)C(OC)c2ccc(Br)cc2)cc1OC (stereo not drawn) [Compound E1.019, 2-(4-bromo-phenyl)-2-methoxy-N-[2-(3-methoxy-4-prop-2-ynyloxy-phenyl)-ethyl]-acetamide] | 80 to 100 | 80 to 100 | 80 to 100 | 80 to 100 | 80 to 100 | 80 to 100 |  |
